Measurements as given in paper PMC5753150 (Beilstein Journal of Organic Chemistry, 2017).
“Also recorded” adds a separate entry of the source. *1 amine or outer side, *2 acyl side, *3 side chain or, on linkers, in order; H or OH if unused. Where a SMILES comes first, the peptide text is derived from it. [ ]: non-standard residue; d: D form. Leu(5,5,5,5',5',5'-F6) = N[C@@H](CC(C(F)(F)F)C(F)(F)F)C(=O)O; X1 = C[C@@H](CC(F)(F)F)[C@H](N[*:1])C(=O)[*:2]; 2Abz = Nc1ccccc1C(=O)O

What was measured:
[1] = target: T1, α-chymotrypsin (EC 3.4.21.1) (Bos taurus, UniProt P00766); test: Protease digestion assay with α-chymotrypsin (FL-RP-HPLC); format: in vitro ADME, bovine; conditions: for Percentage of substrate remaining after incubation for 24 h: α-chymotrypsin (bovine pancreas), 10 mM phosphate buffer pH 7.4 with DMSO, 30 °C, FL-RP-HPLC peak integration (Abz, λex 320/λem 420 nm), average of three independent measurements; for Gain in proteolytic stability upon fluorination compared to the non-fluorinated (Leu or Ile) analogue / Proteolytic stability compared to control peptide FA after 120 min / Proteolytic stability compared to control peptide FA after 24 h: α-chymotrypsin, 10 mM phosphate buffer pH 7.4, 30 °C, FL-RP-HPLC; for Gain in proteolytic stability upon fluorination compared to the non-fluorinated (Leu or Ile) analogue: after 24 h; for Proteolytic stability compared to control peptide FA after 120 min / Proteolytic stability compared to control peptide FA after 24 h: three independent measurements
T1 construct: purchased Sigma Aldrich; host or cells: bovine pancreas
Protocol: (§1) The FA peptide was used as a reference. […] All experiments were performed in triplicate.
(§2) The used linear gradients are
(§3) chromatograms where an insufficient baseline separation was observed,
(§4) (proteinase K)]. The obtained data were analyzed with EZChrom Elite software
(§5) Method Time [min] Water + 0.1% (v/v) TFA [%] ACN + 0.1% (v/v) TFA [%]

[2] = target: T2, proteinase K (EC 3.4.21.64) (Parengyodontium album, UniProt P06873); test: Protease digestion assay with proteinase K (FL-RP-HPLC); format: in vitro ADME, tritirachium album; conditions: for Gain in stability upon fluorination compared to the non-fluorinated analogue, 120 min: after 120 min
T2 construct: purchased Sigma Aldrich; host or cells: Tritirachium album
Protocol: as §1, §2, §3, §4, §5

in vitro = conditions: pig, pepsin from porcine stomach mucosa, pH 4
Protocol: (§6) The course of proteolytic digestion was characterized by an analytical HPLC-assay with fluorescence detection. For quantification of substrate degradation, integration of the corresponding HPLC peak was conducted. Cleavage products were identified by ESI–ToF mass spectrometry (see Supporting Information File 1, Tables S4–S7).
(§7) All peptides employed in the degradation studies were used as the TFA salts obtained after lyophilization. Stock solutions of α-chymotrypsin (from bovine pancreas, EC 3.4.21.1, ≥40.0 units/mg of protein, Sigma Aldrich, St. Louis, MO, USA), and pepsin (from porcine stomach mucosa, EC 3.4.23.1, ≥250 units/mg of protein, Sigma Aldrich, St. Louis, MO, USA) were prepared at concentrations of 1 mg/mL in phosphate buffer (10 mM, pH 7.4), or in acetate buffer (10 mM, pH 4.0), respectively. For proteinase K (from tritirachium album, EC 3.4.21.64, ≥30 units/mg of protein, Sigma Aldrich, St. Louis, MO, USA) and elastase (from porcine pancreas, EC 3.4.21.36, 6.2 units/mg of protein, Sigma Aldrich, St. Louis, MO, USA) stock solutions were prepared also at concentrations of 1 mg/mL in tris/HCl (50 mM) + CaCl2 (10 mM) buffer (pH 7.5), or in tris/HCl buffer (100 mM, pH 8.4), respectively. Peptides (0.002 mmol) were prepared as stocks in DMSO (100 µL) and incubated with the respective enzyme at 30 °C (for α-chymotrypsin and pepsin) or 37 °C (for proteinase K and elastase) with shaking at 300 rpm in a thermomixer over a period of 24 h. The reaction mixture consisted of DMSO (15 µL), corresponding buffer (25 µL), peptide solution (5 µL) and the corresponding enzyme solution (5 µL). […] Aliquots of 5 µL were taken at fixed time points (0, 15, 30, 60, 90, 120 min as well as 3 h and 24 h) and either quenched with ACN containing 0.1% (v/v) TFA (95 µL), in the case of α-chymotrypsin, proteinase K and elastase, or 2% aqueous ammonia (95 µL), in the case of pepsin. All samples were subjected to analytical HPLC on a LaChrom-ELITE-HPLC-System equipped with a fluorescence detector (VWR International Hitachi, Darmstadt, Germany). A monolithic reversed-phase C8 Chromolith® Performance HPLC column (100 × 4.6 mm, Merck KGaA, Darmstadt, Germany) was used to resolve and quantify the products of digestion. The used system and gradients are described in detail in Supporting Information File 1. Detection based on the Abz label was carried out using a fluorescence detector with λex = 320 nm and λem = 420 nm. In all cases, the peaks corresponding to the starting materials (full-length peptides) or the N-terminal fragments (products) were integrated and used to determine the velocity of the reaction (see Supporting Information File 1). […] Each fragment cleaved from the full-length peptide was identified by ESI–ToF mass analysis on an Agilent 6220 ESI–ToF–MS spectrometer (Agilent Technologies, Santa Clara, CA, USA, see Supporting Information File 1). All experiments were performed in triplicate.
(§8) 2130) with solvent degasser, an autosampler (L-2200) with a 100 µL sample loop, a diode array flow detector (L-2455), a fluorescence detector (L-2485) and a high pressure gradient mixer. As eluents water and ACN, both containing 0.1% (v/v) TFA were used, and a flow rate of 3 mL/min was applied. The used linear gradients are […]
(§9) For the non-fluorinated peptides method A was used to follow the digestion process, and for the fluorinated peptides method B was applied. For […]
(§10) The obtained data were analyzed with EZChrom Elite software
(§11) (version 3.3.2, Agilent Technologies, Santa Clara, CA, USA).

pepsin (EC 3.4.23.1) [3] = target: pepsin (EC 3.4.23.1) (Sus scrofa, UniProt P00791); test: in vitro; conditions: for Percentage of substrate remaining after incubation for 24 h: pepsin (porcine stomach mucosa), 10 mM acetate buffer pH 4.0 with DMSO, 30 °C, FL-RP-HPLC peak integration (Abz, λex 320/λem 420 nm), average of three independent measurements
Protocol: as §6, §7, §8, §9, §10, §11

elastase (EC 3.4.21.36) [4] = target: elastase (EC 3.4.21.36) (Sus scrofa, UniProt P00772); conditions: elastase (porcine pancreas), 100 mM Tris/HCl buffer pH 8.4 with DMSO, 37 °C, mean of three independent measurements; for Degradation state after incubation for 120 min: FL-RP-HPLC
Protocol: as §6, §7, §8, §9, §10, §11

[5] = system: proteinase K (EC 3.4.21.64); test: proteinase K in 50 mM Tris/HCl buffer, containing 10 mM CaCl2 pH 7.5; conditions: tritirachium album, 37 °C, up to 24 h
[6] = system: α-chymotrypsin (EC 3.4.21.1); test: α-chymotrypsin in 10 mM phosphate buffer, pH 7.4; conditions: bovine pancreas, 30 °C, up to 24 h
pepsin (EC 3.4.23.1) [7] = test: pepsin in 10 mM acetate buffer, pH 4.0; conditions: porcine stomach mucosa, 30 °C, up to 24 h
elastase (EC 3.4.21.36) [8] = test: elastase in 100 mM Tris/HCl buffer, pH 8.4; conditions: porcine pancreas, 37 °C, up to 24 h
[9] = system: elastase (from porcine pancreas, EC 3.4.21.36); test: elastase in 100 mM Tris/HCl buffer, pH 8.4; conditions: 37 °C, up to 24 h
dipeptidyl peptidase = conditions: wild-type peptide; cited from earlier work
Text: Several laboratories have focused on introducing highly fluorinated analogues of hydrophobic amino acids and have studied the effects on stability of the resulting proteins towards thermal and chemical denaturation. These studies prompted further investigation into the extent to which fluorinated amino acids stabilize peptides and proteins against proteolytic degradation in particular. Meng and Kumar reported that the incorporation of 5,5,5,5’,5’,5’-hexafluoroleucine (HfLeu) into the antimicrobial peptides magainin 2 amide and buforin enhanced their resistance towards proteolyt ...

[10] = proteinase K, 50 mM Tris/HCl + 10 mM CaCl2 pH 7.5, 37 °C
[11] = proteinase K, 50 mM Tris/HCl + 10 mM CaCl2 pH 7.5, 37 °C, 120 min, FL-RP-HPLC
[12] = pepsin, 10 mM acetate buffer pH 4.0, 30 °C, 120 min, FL-RP-HPLC

Chain of pepsin (EC 3.4.23.1) (Sus scrofa, UniProt P00791) (P00791 60-385): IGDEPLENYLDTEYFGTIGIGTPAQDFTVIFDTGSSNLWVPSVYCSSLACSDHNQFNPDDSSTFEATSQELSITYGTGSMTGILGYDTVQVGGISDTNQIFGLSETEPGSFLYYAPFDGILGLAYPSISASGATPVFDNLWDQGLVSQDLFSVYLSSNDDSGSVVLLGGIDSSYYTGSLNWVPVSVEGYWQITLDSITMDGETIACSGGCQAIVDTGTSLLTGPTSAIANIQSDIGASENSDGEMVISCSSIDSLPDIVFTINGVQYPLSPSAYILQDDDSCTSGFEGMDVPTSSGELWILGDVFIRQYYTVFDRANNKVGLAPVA
T2 sequence (P06873 106-384): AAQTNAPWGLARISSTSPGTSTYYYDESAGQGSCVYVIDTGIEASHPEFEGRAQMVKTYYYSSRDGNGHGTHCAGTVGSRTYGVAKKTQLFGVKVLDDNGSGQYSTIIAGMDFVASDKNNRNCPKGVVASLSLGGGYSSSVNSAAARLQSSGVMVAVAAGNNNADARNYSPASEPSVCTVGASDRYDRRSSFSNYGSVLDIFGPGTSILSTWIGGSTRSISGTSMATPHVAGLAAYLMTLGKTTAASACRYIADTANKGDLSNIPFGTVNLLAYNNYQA
Chain of elastase (EC 3.4.21.36) (Sus scrofa, UniProt P00772) (P00772 27-266): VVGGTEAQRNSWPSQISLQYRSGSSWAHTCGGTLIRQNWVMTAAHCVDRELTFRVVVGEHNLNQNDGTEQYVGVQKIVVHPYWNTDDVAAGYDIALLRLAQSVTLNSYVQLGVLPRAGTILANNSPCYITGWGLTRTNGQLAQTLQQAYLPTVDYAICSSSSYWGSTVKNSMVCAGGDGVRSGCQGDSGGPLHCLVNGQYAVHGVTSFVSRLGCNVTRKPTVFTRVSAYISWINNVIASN

In the case of `C[C@H](NC(=O)[C@H](C)NC(=O)[C@H](C)NC(=O)[C@H](Cc1ccccc1)NC(=O)[C@H](CC(C(F)(F)F)C(F)(F)F)NC(=O)[C@H](C)NC(=O)[C@H](CCCCN)NC(=O)c1ccccc1N)C(=O)N[C@@H](C)C(=O)N[C@@H](CCCCN)C(=O)O` [P2-HfLeuFA] (H-[2Abz]KA[Leu(5,5,5,5',5',5'-F6)]FAAAAK-OH), the gain in stability vs non-fluorinated analogue after 24 h is reported as 19%, the “Percentage of substrate remaining after incubation for 24 h” value (“Percentage of substrate remaining” for short) [1] is reported as “not digested at all” and the “Gain in proteolytic stability upon fluorination compared to the non-fluorinated (Leu or Ile) analogue” value [1] is reported as roughly 100%.
In the case of `C[C@H](NC(=O)[C@H](C)NC(=O)[C@H](C)NC(=O)[C@H](Cc1ccccc1)NC(=O)[C@@H](NC(=O)[C@H](C)NC(=O)[C@H](CCCCN)NC(=O)c1ccccc1N)[C@@H](C)CC(F)(F)F)C(=O)N[C@@H](C)C(=O)N[C@@H](CCCCN)C(=O)O` [P2-TfIleFA] (H-[2Abz]KA[X1]FAAAAK-OH), the gain in stability vs non-fluorinated analogue after 24 h is reported as 35%, the “Percentage of substrate remaining” value ([2]; proteinase K (tritirachium album), 50 mM Tris/HCl buffer containing 10 mM CaCl2 pH 7.5 with DMSO, 37 °C, 24 h, FL-RP-HPLC peak integration (Abz fluorescence), mean of three independent measurements) is reported as “still left; also recorded: remarkably stable” and the “Gain in stability upon fluorination compared to the non-fluorinated analogue, 120 min” value [2, 10] is reported as 60%. For the same molecule, the “Percentage of substrate remaining” value [1] was “not digested at all”, the “Gain in proteolytic stability upon fluorination compared to the non-fluorinated (Leu or Ile) analogue” value [1] was 50% and the remaining at 24 h, 2 mM (in vitro) was 100%. The “Gain in proteolytic stability upon fluorination compared to the non-fluorinated analogue, 24 h” value (pepsin (EC 3.4.23.1) [3]; pepsin, 10 mM acetate buffer pH 4.0, 30 °C, after 24 h) was 100%.
For `C[C@H](NC(=O)[C@H](C)NC(=O)[C@H](CC(C(F)(F)F)C(F)(F)F)NC(=O)[C@H](C)NC(=O)[C@H](Cc1ccccc1)NC(=O)[C@H](C)NC(=O)[C@H](C)NC(=O)[C@H](CCCCN)NC(=O)c1ccccc1N)C(=O)N[C@@H](CCCCN)C(=O)O` [P2’-HfLeuFA] (H-[2Abz]KAAFA[Leu(5,5,5,5',5',5'-F6)]AAK-OH), the “Degradation state after incubation for 120 min” value (from here on “Degradation state”) [2, 11] was “almost completely degraded”, the “Percentage of substrate remaining” value [1] was “up to 44%” and the “Proteolytic stability compared to control peptide FA after 120 min” value [1] was “more stable against digestion”. The remaining at 24 h, 2 mM (in vitro) was roughly 76% and the “Peptide digested (hydrolysis) after 120 min” value (pepsin (EC 3.4.23.1) [3]; pepsin, 10 mM acetate buffer pH 4.0, 30 °C, 120 min, FL-RP-HPLC, enzyme concentration optimized to about 40% hydrolysis of FA) was “up to 5%”.
In the case of `CC[C@H](C)[C@H](NC(=O)[C@H](C)NC(=O)[C@H](Cc1ccccc1)NC(=O)[C@H](C)NC(=O)[C@H](C)NC(=O)[C@H](CCCCN)NC(=O)c1ccccc1N)C(=O)N[C@@H](C)C(=O)N[C@@H](C)C(=O)N[C@@H](CCCCN)C(=O)O` [P2’-IleFA] (H-[2Abz]KAAFAIAAK-OH), the “Proteolytic stability compared to control peptide FA after 120 min” value [2, 11] is reported as “as stable as FA”, the “Proteolytic stability compared to control peptide FA after 120 min” value [1] is reported as “more stable against digestion” and the “Proteolytic stability compared to control peptide FA after 24 h” value [1] is reported as “accelerated proteolysis compared to FA”. For the same molecule, the “Percentage of substrate remaining” value (pepsin (EC 3.4.23.1) [3]) was “completely digested”, the “Proteolytic stability compared to control peptide FA after 120 min” value (pepsin (EC 3.4.23.1) [3]; [12]) was “degraded faster than the control FA” and the “Degradation state” value (elastase (EC 3.4.21.36) [4]) was “somewhat digested”. The “Percentage of substrate remaining” value (elastase (EC 3.4.21.36) [4]; 24 h, FL-RP-HPLC peak integration (Abz fluorescence)) was “almost complete proteolysis”.
With `CC(C)C[C@H](NC(=O)[C@H](C)NC(=O)[C@H](Cc1ccccc1)NC(=O)[C@H](C)NC(=O)[C@H](C)NC(=O)[C@H](CCCCN)NC(=O)c1ccccc1N)C(=O)N[C@@H](C)C(=O)N[C@@H](C)C(=O)N[C@@H](CCCCN)C(=O)O` [P2’-LeuFA] (H-[2Abz]KAAFALAAK-OH) the “Proteolytic stability compared to control peptide FA after 120 min” value [1] was “more stable against digestion”, the “Proteolytic stability compared to control peptide FA after 24 h” value [1] was “accelerated proteolysis compared to FA” and the “Proteolytic stability compared to control peptide FA after 120 min” value (pepsin (EC 3.4.23.1) [3]; [12]) was “degraded faster than the control FA”. The “Degradation state” value (elastase (EC 3.4.21.36) [4]) was “somewhat digested”.
In the case of Abz-KAAFALeuAAK, the cleaved bond [5] is reported as “A-F and Leu-A”, the cleaved bond [6] is reported as “F-A, major” and the cleaved bond (pepsin (EC 3.4.23.1) [7]) is reported as “F-A”. The cleaved bond (elastase (EC 3.4.21.36) [8]) was “A-A and A-Leu and A-K” and the not cleaved [9] was “no fragments with Phe in P1 observed”.
For Abz-KAAFATfIleAAK [P2’-TfIleFA], the “Gain in stability upon fluorination compared to the non-fluorinated analogue, 120 min” value [2, 10] was “around 12%”, the “Percentage of substrate remaining” value (pepsin (EC 3.4.23.1) [3]) was “completely digested” and the “Proteolytic stability compared to control peptide FA after 120 min” value (pepsin (EC 3.4.23.1) [3]; [12]) was “degraded faster than the control FA”. The “Degradation state” value (elastase (EC 3.4.21.36) [4]) was “somewhat digested”.
For glucagon-like-peptide-1 [GLP-1], the “Time of rapid digestion by the serine protease dipeptidyl peptidase” value (dipeptidyl peptidase) is given as “≈ 2 min”.
